Columns and labels:
[1] = target: wild-type (WT) staphylococcal α-hemolysin (αHL) heptamer (Staphylococcus aureus, UniProt P09616); format: biochemical; settings: pH 7
αHL pore = αHL pore (Staphylococcus aureus, UniProt P09616); format: biochemical, staphylococcal
WT αHL = WT αHL (Staphylococcus aureus, UniProt P09616); format: biochemical, staphylococcal; settings: pH 7
Chain of WT αHL (P09616 27-319 limits assumed): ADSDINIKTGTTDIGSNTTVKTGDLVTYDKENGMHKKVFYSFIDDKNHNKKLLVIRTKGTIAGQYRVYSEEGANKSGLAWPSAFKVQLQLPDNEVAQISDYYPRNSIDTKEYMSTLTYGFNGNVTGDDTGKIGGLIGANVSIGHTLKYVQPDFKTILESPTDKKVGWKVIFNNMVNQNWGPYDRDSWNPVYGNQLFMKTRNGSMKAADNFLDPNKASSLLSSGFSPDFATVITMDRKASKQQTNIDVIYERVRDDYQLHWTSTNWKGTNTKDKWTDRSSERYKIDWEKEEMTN

Chain of wild-type (WT) staphylococcal α-hemolysin (αHL) heptamer (P09616 27-319 limits assumed): as above
Chain of αHL pore (P09616 27-319 limits assumed): as above

γ-cyclodextrin [γCD]
residence time (toff) for γCD bound to the αHL pore [1]: 495 ± 51 ms
residence time (toff) (αHL pore): 421 ± 22 ms
ionic current blocked by transient binding to an αHL pore (WT αHL): around 60%
